Several values for one entry are separate records, joined by “and”; a condition that tells them apart may be missing. Equal entries are not always repeated.
Key:
[1] = tested on: lung slices obtained from ovalbumin-sensitized guinea pigs; assay: Ovalbumin-induced airway constriction in lung slices from ovalbumin-sensitized guinea pigs; assay type: cell-based, guinea pig; conditions: 1 µM Fenoterol, Exp1-5
Source text: All curve fits were generated using the software program GraphPad Prism. Data are represented as mean ± SEM of 4–5 guinea pigs (see Table 2 for statistical analyses).
Outbred, male, specified pathogen-free Dunkin Hartley guinea pigs (Charles River Laboratory) weighing 200 to 400 g were used. The animals were housed in pairs under a 12-hour light/dark cycle in a temperature- and humidity-controlled room with food and tap water ad libitum. For studies in the guinea pig model of allergic asthma, animals were actively IgE-sensitized to ovalbumin by injecting a suspension containing 100 μg/mL ovalbumin and 100 mg/mL Al(OH)3 in saline. Each animal was injected with 1.0 mL of suspension: 0.5 mL was injected i.p. and 0.5 mL was divided over 7 s.c. sites close to lymph nodes in the neck, paws, and lumbar regions ([24]). Animals were euthanized at least 4 weeks after sensitization.
Precision-cut lung slices were prepared as described previously ([61], [62]). A 3% solution of low melting-point agarose (Gerbu Biotechnik GmbH) in ultrapure water was prepared by heating it a microwave until fully dissolved. […] After filling, the lungs were covered with ice for 30 minutes to solidify the agarose for slicing. […] Lung slices were cut at a thickness of 500 μm and washed several times with slicing buffer to remove debris and washout the isoproterenol. Slices were incubated overnight in a 60 mm dish in sterile incubation buffer: MEM composed of lung slice buffer supplemented with 0.5 mM sodium pyruvate, 1 mM glutamine (Gibco), MEM-amino acids mixture (1:50), MEM-vitamins mixture (1:100; Gibco), and penicillin-streptomycin (1:100; Gibco), pH = 7.2, at 37°C in a CO2- and humidity-controlled atmosphere.
After washing the slices in medium, individual guinea pig lung slices were mechanically maintained with a Teflon ring with an inner diameter of 7 mm and covered with 1 mL of incubation buffer. […] Image acquisition software (NIS-Elements, Nikon) was used to quantify airway luminal area. Images of the airways were acquired every 2 seconds during the whole course of the experiment, starting 2 minutes before the addition of any agent to allow for baseline measurements of the airway caliber. For each methacholine or ovalbumin concentration, the maximal airway constriction was expressed as percentage of the initial (baseline) airway luminal area and plotted against that concentration.

human lung slices = assay: Methacholine-induced airway constriction in human lung slices; assay type: cell-based; conditions: for MCh-induced airway constriction response (Figure 7): donor 1-4
Source text: All curve fits were generated using the software program GraphPad Prism. Data are represented as mean ± SEM of 4 human donors (see Table 3 for statistical analyses).
Precision-cut human lung slices were purchased from AnaBios and stored in a liquid nitrogen tank. Lung tissue was obtained postmortem and consent for research was obtained by AnaBios for all donors. Characteristics of the donors of the lung tissue are shown in Supplemental Table 2. Slices were rapidly thawed following instructions from AnaBios.
After washing, individual human lung slices were mechanically maintained with a Teflon ring with an inner diameter of 7 mm and covered with 1 mL of incubation buffer. […] Image acquisition software (NIS-Elements, Nikon) was used to quantify airway luminal area. […] Airway constriction in response to each methacholine concentration was expressed as percentage of the initial airway luminal area.

guinea pig β2AR = guinea pig β2AR (Cavia porcellus, UniProt Q8K4Z4); assay: 125I-CYP radioligand competition binding, guinea pig β2AR; conditions: DMSO, listed as FEN
Chain of guinea pig β2AR (Q8K4Z4 whole entry): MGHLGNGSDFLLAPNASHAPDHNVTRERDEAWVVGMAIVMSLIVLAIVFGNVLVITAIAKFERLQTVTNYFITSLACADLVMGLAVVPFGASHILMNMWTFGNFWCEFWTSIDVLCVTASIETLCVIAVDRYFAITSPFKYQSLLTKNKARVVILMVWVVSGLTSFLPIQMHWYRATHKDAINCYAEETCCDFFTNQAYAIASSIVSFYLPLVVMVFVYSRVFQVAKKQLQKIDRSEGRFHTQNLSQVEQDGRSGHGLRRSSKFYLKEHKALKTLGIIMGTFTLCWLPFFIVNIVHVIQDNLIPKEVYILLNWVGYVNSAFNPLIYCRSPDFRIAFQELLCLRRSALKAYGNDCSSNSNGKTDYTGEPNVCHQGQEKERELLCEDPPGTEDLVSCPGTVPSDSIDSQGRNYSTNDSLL

## CC(Cc1ccc(O)cc1)NCC(O)c1cc(O)cc(O)c1 (stereo not drawn) [Fenoterol, fenoterol]
[1]; [OVA] 100000 ng/ml
  OVA-induced airway constriction response (Figure 6): 91.8 and 92.1 and 100.5 and 99.1 and 87.0
[1]; [OVA] 1000000 ng/ml
  OVA-induced airway constriction response (Figure 6): 92.1 and 93.3 and 97.5 and 83.9
Human lung slices; 1 µM Fenoterol, -Log [MCh] 3.5
  MCh-induced airway constriction response (Figure 7): 66.3 and 38.1 and 61.4 and 57.2
Human lung slices; 1 µM Fenoterol, -Log [MCh] 4
  MCh-induced airway constriction response (Figure 7): 66.7 and 40.2 and 56.4 and 59
Human lung slices; 1 µM Fenoterol, -Log [MCh] 4.5
  MCh-induced airway constriction response (Figure 7): 64.6 and 41.7 and 58.9 and 57.8
Human lung slices; 1 µM Fenoterol, -Log [MCh] 5
  MCh-induced airway constriction response (Figure 7): 64.0 and 44.2 and 53.4 and 60.0
Human lung slices; 1 µM Fenoterol, -Log [MCh] 5.5
  MCh-induced airway constriction response (Figure 7): 70.0 and 50.2 and 57.7 and 59.1
Human lung slices; 1 µM Fenoterol, -Log [MCh] 6
  MCh-induced airway constriction response (Figure 7): 78.6 and 52.9 and 60.3 and 62.9
Human lung slices; 1 µM Fenoterol, -Log [MCh] 6.5
  MCh-induced airway constriction response (Figure 7): 78.2 and 58.1 and 66.2 and 68.4
Human lung slices; 1 µM Fenoterol, -Log [MCh] 7
  MCh-induced airway constriction response (Figure 7): 83.5 and 66.4 and 73.5 and 75.0
Human lung slices; 1 µM Fenoterol, -Log [MCh] 7.5
  MCh-induced airway constriction response (Figure 7): 90.1 and 68.0 and 78.3 and 79.7
Human lung slices; 1 µM Fenoterol, -Log [MCh] 8
  MCh-induced airway constriction response (Figure 7): 97.8 and 78.9 and 83.6 and 92.0
Human lung slices; 1 µM Fenoterol, -Log [MCh] 8.5
  MCh-induced airway constriction response (Figure 7): 89.0 and 94.8 and 96.5
Human lung slices; 1 µM Fenoterol, -Log [MCh] 9
  MCh-induced airway constriction response (Figure 7): 100.2 and 93.5 and 97.1 and 98.8
Human lung slices; 1 μM fenoterol
  Airway luminal area at the highest methacholine concentration: 55.7% ± 6.2%
Human lung slices; 10 µM Fenoterol, -Log [MCh] 3.5
  MCh-induced airway constriction response (Figure 7): 79.8 and 72.5 and 79.3 and 86.4
Human lung slices; 10 µM Fenoterol, -Log [MCh] 4
  MCh-induced airway constriction response (Figure 7): 80.3 and 75.3 and 80 and 86.3
Human lung slices; 10 µM Fenoterol, -Log [MCh] 4.5
  MCh-induced airway constriction response (Figure 7): 83.8 and 75.6 and 80.1 and 86.9
Human lung slices; 10 µM Fenoterol, -Log [MCh] 5
  MCh-induced airway constriction response (Figure 7): 91.0 and 83.4 and 80.2 and 86.4
Human lung slices; 10 µM Fenoterol, -Log [MCh] 5.5
  MCh-induced airway constriction response (Figure 7): 98.1 and 86.0 and 82.0 and 87.9
Human lung slices; 10 µM Fenoterol, -Log [MCh] 6
  MCh-induced airway constriction response (Figure 7): 99.0 and 86.3 and 86.9 and 91.9
Human lung slices; 10 µM Fenoterol, -Log [MCh] 6.5
  MCh-induced airway constriction response (Figure 7): 99.5 and 90.2 and 90.4 and 97.1
Human lung slices; 10 µM Fenoterol, -Log [MCh] 7
  MCh-induced airway constriction response (Figure 7): 99.7 and 93.0 and 91.3 and 96.6
Human lung slices; 10 µM Fenoterol, -Log [MCh] 7.5
  MCh-induced airway constriction response (Figure 7): 94.8 and 96.0 and 99.4
Human lung slices; 10 µM Fenoterol, -Log [MCh] 8
  MCh-induced airway constriction response (Figure 7): 101.4 and 95.9 and 99.4 and 100.7
Human lung slices; 10 µM Fenoterol, -Log [MCh] 8.5
  MCh-induced airway constriction response (Figure 7): 103.2 and 98.6 and 100.6 and 95.6
Human lung slices; 10 µM Fenoterol, -Log [MCh] 9
  MCh-induced airway constriction response (Figure 7): 100.3 and 99.4 and 101.1 and 99.5
Human lung slices; 10 μM fenoterol
  Airway luminal area at the highest methacholine concentration: 79.5% ± 2.8%
Human lung slices; Homo sapiens, read-out: MCh pD2, 10 μM Fenoterol (converted)
  EC50: 1.7 µM
Guinea pig β2AR; Log [FEN] (M) -4.49485
  125I-CYP binding, FEN competition curve (Figure 4D): 3.006 and 3.081 and 4.379 and 2.482
Guinea pig β2AR; Log [FEN] (M) -5.09691
  125I-CYP binding, FEN competition curve (Figure 4D): 10.5632 and 11.6008 and 14.5744 and 11.1845
Guinea pig β2AR; Log [FEN] (M) -5.69897
  125I-CYP binding, FEN competition curve (Figure 4D): 27.5943 and 31.6003 and 36.8549 and 31.4566
Guinea pig β2AR; Log [FEN] (M) -6.30103
  125I-CYP binding, FEN competition curve (Figure 4D): 58.2352 and 64.6742 and 67.2527 and 62.2696
Guinea pig β2AR; Log [FEN] (M) -6.90309
  125I-CYP binding, FEN competition curve (Figure 4D): 83.5341 and 84.3533 and 88.9652 and 87.8637
Guinea pig β2AR; Log [FEN] (M) -7.50515
  125I-CYP binding, FEN competition curve (Figure 4D): 93.701 and 97.0547 and 97.6505 and 97.0492
Guinea pig β2AR; Log [FEN] (M) -8.10721
  125I-CYP binding, FEN competition curve (Figure 4D): 100.713 and 99.5295 and 100.092
Guinea pig β2AR; Log [FEN] (M) -8.70927
  125I-CYP binding, FEN competition curve (Figure 4D): 98.7203 and 100.799 and 100.482
Guinea pig β2AR; Log [FEN] (M) -9.31133
  125I-CYP binding, FEN competition curve (Figure 4D): 101.392 and 100.992 and 100.128
Guinea pig β2AR; Log [FEN] (M) -9.91339
  125I-CYP binding, FEN competition curve (Figure 4D): 99.9817 and 101.061 and 100.058 and 101.342
